In one test the target is T1, GRK3 (Homo sapiens, UniProt P35626).
T1 sequence (P35626 1-688): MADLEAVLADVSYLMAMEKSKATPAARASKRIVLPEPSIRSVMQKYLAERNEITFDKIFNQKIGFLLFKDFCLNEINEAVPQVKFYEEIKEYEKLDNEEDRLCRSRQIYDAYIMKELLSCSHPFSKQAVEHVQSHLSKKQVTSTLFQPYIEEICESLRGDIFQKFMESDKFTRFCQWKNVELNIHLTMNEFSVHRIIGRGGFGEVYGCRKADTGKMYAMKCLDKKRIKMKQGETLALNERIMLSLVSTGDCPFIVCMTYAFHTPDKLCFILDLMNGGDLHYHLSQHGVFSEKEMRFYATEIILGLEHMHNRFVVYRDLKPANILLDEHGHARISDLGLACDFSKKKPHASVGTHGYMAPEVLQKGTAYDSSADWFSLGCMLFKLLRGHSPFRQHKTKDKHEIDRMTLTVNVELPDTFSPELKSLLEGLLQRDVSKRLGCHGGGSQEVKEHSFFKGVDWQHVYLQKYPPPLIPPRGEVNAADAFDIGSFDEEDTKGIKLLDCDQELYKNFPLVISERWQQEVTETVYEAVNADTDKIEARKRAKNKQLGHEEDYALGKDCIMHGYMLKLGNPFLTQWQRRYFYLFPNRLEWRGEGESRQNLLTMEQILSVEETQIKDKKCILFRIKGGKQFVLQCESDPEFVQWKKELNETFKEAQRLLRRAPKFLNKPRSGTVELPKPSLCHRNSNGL
Description: biochemical. Conditions: read-out: % enzyme activity, 1 μM; Run 1, Run 2.

The target in a further test is T2, AXL (Homo sapiens, UniProt P30530).
T2 sequence (P30530 26-894): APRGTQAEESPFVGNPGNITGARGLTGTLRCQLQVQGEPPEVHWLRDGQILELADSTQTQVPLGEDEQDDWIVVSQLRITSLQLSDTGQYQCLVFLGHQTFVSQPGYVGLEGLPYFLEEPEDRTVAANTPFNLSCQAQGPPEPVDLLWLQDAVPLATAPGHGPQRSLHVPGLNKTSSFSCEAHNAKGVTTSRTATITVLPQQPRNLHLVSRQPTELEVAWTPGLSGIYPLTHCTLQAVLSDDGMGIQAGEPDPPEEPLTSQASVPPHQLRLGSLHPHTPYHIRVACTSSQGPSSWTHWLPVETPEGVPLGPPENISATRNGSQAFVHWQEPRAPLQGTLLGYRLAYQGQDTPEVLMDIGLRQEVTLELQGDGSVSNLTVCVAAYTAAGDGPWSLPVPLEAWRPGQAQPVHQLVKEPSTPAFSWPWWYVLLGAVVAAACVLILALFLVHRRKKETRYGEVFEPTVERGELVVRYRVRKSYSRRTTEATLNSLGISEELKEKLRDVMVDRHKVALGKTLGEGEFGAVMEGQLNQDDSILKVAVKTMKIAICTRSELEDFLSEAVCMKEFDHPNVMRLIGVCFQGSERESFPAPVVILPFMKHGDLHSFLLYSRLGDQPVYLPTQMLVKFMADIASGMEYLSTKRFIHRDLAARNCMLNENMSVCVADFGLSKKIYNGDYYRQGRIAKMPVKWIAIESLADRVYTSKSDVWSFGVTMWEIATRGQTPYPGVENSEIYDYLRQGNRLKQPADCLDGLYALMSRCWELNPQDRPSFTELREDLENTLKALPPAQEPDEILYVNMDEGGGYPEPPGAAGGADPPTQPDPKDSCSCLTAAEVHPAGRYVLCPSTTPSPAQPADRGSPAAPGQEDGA
Conditions: 1 μM; Run 1, Run 2.

A further test deals with COT1/MAP3K8 (Homo sapiens, UniProt P41279). Kind of test: biochemical. Conditions: read-out: % enzyme activity, 1 μM; Run 1, Run 2.
Chain of COT1/MAP3K8 (P41279 whole entry): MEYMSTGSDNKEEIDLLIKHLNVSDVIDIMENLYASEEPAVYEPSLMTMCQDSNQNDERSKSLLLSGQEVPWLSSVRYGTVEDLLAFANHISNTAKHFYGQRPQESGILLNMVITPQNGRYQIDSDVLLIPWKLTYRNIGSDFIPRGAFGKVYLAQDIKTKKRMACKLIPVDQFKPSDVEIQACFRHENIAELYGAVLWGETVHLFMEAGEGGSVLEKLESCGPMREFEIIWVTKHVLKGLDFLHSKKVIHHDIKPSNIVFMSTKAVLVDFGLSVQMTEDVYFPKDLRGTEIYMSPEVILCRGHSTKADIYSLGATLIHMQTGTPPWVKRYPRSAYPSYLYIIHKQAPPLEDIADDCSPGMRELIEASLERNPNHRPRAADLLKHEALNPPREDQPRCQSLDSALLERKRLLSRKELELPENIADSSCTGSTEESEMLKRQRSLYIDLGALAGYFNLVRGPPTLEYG
A further test has as its target AURORA B (Homo sapiens, UniProt Q96GD4). Description: biochemical. Conditions: read-out: % enzyme activity, 1 μM; Run 1, Run 2.
Another test has as its target T3, Aurora C (Homo sapiens, UniProt Q9UQB9).
T3 sequence (Q9UQB9 1-309): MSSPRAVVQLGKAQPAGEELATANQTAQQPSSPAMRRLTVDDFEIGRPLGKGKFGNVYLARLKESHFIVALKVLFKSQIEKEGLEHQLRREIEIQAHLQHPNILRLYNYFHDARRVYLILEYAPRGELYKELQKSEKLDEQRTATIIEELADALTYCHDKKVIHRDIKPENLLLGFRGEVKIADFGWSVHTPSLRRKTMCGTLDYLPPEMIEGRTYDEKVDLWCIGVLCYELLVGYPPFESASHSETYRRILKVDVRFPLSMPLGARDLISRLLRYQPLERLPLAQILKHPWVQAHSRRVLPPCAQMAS
Description: biochemical. Conditions: read-out: % enzyme activity, 1 μM; Run 1, Run 2.

Another test concerns the target DAPK1 (Homo sapiens, UniProt P53355). Description: biochemical. Conditions: read-out: % enzyme activity, 1 μM; Run 1, Run 2.
A further test deals with GRK5 (Homo sapiens, UniProt P34947). Description: biochemical. Conditions: read-out: % enzyme activity, 1 μM; Run 1, Run 2.
Chain of GRK5 (P34947 whole entry): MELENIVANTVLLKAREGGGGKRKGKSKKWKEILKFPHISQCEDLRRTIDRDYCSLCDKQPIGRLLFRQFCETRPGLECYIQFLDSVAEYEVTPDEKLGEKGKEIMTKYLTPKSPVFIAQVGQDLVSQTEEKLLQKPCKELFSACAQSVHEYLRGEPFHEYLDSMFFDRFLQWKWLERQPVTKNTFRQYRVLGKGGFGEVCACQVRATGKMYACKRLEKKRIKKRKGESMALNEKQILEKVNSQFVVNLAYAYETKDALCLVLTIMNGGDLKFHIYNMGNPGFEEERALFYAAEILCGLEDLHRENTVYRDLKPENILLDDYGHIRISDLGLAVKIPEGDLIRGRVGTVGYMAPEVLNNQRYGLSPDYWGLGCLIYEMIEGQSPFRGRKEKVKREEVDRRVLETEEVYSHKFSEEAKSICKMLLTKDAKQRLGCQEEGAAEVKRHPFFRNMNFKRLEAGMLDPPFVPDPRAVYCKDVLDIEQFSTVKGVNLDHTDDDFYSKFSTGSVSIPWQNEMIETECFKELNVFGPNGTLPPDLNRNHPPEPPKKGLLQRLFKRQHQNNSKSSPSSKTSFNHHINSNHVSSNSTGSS
Another test addresses T4, ARK5/NUAK1 (Homo sapiens, UniProt O60285).
T4 sequence (O60285 1-661): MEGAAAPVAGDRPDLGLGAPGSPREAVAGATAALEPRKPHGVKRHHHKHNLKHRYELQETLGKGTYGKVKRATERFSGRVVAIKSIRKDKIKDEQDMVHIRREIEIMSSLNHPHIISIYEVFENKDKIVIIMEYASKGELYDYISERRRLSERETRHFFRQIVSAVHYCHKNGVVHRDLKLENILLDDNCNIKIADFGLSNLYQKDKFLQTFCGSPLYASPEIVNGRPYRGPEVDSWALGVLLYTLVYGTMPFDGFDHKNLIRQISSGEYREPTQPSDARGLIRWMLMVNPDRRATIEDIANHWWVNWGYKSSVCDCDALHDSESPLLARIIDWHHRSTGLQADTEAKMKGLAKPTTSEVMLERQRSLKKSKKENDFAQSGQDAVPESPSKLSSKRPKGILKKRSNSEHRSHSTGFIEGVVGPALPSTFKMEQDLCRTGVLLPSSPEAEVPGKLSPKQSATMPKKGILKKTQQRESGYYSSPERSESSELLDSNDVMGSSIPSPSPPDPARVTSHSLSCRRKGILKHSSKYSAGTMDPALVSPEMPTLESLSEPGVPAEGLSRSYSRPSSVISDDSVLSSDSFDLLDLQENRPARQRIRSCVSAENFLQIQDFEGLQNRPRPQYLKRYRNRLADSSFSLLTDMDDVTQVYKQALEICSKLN
Conditions: 1 μM; Run 1, Run 2.

Structures are written as SMILES. Several values for one entry are separate records, joined by “and”; a condition that tells them apart may be missing. Equal entries are not always repeated.

Chain of DAPK1 (P53355 whole entry): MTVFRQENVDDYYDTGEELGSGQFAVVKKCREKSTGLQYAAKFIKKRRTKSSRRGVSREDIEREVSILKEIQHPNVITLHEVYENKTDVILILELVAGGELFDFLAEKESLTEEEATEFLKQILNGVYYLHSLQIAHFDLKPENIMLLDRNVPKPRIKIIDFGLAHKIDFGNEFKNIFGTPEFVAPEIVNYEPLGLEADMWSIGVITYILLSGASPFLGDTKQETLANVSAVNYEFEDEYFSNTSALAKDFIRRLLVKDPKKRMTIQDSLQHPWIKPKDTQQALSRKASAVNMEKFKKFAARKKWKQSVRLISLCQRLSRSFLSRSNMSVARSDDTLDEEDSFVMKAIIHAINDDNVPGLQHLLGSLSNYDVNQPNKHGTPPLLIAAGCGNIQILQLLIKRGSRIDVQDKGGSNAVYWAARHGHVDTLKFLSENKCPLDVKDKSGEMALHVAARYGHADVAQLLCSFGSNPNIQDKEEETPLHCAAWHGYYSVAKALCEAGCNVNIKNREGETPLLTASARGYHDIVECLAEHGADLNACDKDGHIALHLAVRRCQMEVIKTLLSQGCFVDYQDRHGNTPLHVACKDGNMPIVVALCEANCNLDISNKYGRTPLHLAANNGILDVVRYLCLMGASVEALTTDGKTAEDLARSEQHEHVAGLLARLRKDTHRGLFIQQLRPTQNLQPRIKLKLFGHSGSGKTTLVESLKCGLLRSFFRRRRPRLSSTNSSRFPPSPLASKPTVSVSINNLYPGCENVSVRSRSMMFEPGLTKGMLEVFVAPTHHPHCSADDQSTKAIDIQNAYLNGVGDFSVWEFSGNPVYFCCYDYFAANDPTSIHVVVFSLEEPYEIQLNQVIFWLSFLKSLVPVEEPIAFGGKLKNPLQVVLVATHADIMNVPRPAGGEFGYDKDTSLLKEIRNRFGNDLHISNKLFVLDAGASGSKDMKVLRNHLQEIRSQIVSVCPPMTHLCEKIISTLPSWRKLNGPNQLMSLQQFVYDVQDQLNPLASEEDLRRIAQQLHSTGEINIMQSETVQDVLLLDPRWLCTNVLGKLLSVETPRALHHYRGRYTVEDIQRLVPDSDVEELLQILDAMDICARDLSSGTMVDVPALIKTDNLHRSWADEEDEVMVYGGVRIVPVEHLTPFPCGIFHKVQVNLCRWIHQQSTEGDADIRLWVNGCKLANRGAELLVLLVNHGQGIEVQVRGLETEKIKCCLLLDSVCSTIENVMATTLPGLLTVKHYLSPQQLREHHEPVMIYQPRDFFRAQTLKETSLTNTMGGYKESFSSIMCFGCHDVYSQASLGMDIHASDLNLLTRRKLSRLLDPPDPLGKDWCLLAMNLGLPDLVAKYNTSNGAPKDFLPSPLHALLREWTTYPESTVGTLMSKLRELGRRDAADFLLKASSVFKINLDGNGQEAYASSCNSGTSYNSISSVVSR
Chain of AURORA B (Q96GD4 whole entry): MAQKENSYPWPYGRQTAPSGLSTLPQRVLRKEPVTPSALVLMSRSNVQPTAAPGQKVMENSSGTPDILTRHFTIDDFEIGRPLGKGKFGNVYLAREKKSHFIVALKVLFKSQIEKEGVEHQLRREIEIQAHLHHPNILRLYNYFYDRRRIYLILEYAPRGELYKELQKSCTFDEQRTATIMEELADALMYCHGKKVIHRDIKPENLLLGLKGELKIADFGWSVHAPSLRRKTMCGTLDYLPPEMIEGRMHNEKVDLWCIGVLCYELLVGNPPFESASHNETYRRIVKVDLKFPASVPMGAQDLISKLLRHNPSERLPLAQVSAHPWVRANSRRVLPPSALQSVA

With `COc1cc(-c2cncc(-c3ccc(N4CCN(C)CC4)cc3)c2C)cc(F)c1C(N)=O` [Compound 26a, 2-Fluoro-6-methoxy-4-(4-methyl-5-(4-(4-methylpiperazin-1-yl)phenyl)pyridin-3-yl)benzamide], the % enzyme activity at 1 μM in the test on HGK/MAP4K4 is 22% and 21%. Also, the remaining activity at 1 µM at GRK3 stood at 94.4%; on COT1/MAP3K8, 88.7%; on AURORA B it was 102%; on Aurora C it was 105%; at DAPK1 it was 95.7%; at GRK5 it was 104%. Moreover, the “% enzyme activity” value on AXL came to 81.59%; on ARK5/NUAK1, 90.26%.
Turning to `COc1cc(-c2cncc(-c3ccc(N4C[C@@H](C)N(C)[C@@H](C)C4)cc3)c2C)cc(F)c1C(N)=O` [Compound 26c, 2-Fluoro-6-methoxy-4-(4-methyl-5-(4-((3R,5S)-3,4,5-trimethylpiperazin-1-yl)phenyl)pyridin-3-yl)benzamide], in the test on HGK/MAP4K4, the % enzyme activity at 1 μM was 30.6% and 28.4%. Besides, the remaining activity at 1 µM on GRK3 is 96.1%; on COT1/MAP3K8, 92.9%; on AURORA B, 105%; on Aurora C, 100%; on DAPK1, 98.8%; at GRK5, 93.1%. The “% enzyme activity” value at AXL was 86.95%; at ARK5/NUAK1, 93.75%.

The values are drawn from article PMC8213057, “Targeting ALK2: An Open Science Approach to Developing Therapeutics for the Treatment of Diffuse Intrinsic Pontine Glioma” (Journal of Medicinal Chemistry, 2020).
